Tests used:
[1] = tested on: PANC-1 pancreatic cancer cells; assay: Inhibitory activity against tumor cells, CellTiter-Glo: PANC-1; type: cell-based; settings: Homo sapiens, 120 h, PANC-1, 5 days treatment
Experimental: MCF7 (ATCC #HTB-22) and T47D (ATCC #HTB-133) breast cancer cells and PANC-1 (ATCC #CRL-1469) pancreatic cancer cells were purchased from ATCC. MDA-MB-231 (Cobioer #CBP60382), HCC1806 (Cobioer #CBP60373), and MDA-MB-468 (Cobioer #CBP60387) breast cancer cells, HCT-116 (Cobioer #CBP60028) colorectal cancer cells, and OCI-AML-3 (Cobioer #CBP60817) and MV-4-11 (Cobioer #CBP60522) leukemia cells were purchased from Nanjing Cobioer Biosciences Co., Ltd.
OCI-AML-3 was cultured in RPMI 1640 medium with 20% FBS; HCC1806 and T47D were cultured in RPMI 1640 medium with 10% FBS; MCF7, MDA-MB-231, MDA-MB-468, and PANC-1 were cultured in DMEM medium with 10% FBS; MV-4-11 was cultured in IMDM medium with 20% FBS; HCT-116 was cultured in MC′5A medium with 10% FBS.
Palbociclib-resistant cells were constructed on MCF7 parent cells, designated MCF7 Palbo-R, and the culture conditions were consistent with those of the parent cells. All tumor cells were cultured in a cell incubator at 37° C. with 5% CO2. The cells were seeded at corresponding cell densities (600 cells/well for MDA-MB-231; 500 cells/well for MDA-MB-468, PANC-1, and HCT-116; 200 cells/well for MCF7 and HCC1806; 800 cells/well for MCF7 Palbo-R; 3000 cells/well for OCI-AML-3 and MV-4-11) in 384-well plates and cultured overnight in the incubator. On the second day, the cells were treated with compounds. The maximum compound concentration was 10 μM and was 3-fold diluted to obtain 9 concentrations, each tested in duplicate, and the final concentration of DMSO was 0.1%. The cells continued to be cultured in the incubator, with MDA-MB-231, PANC-1, MDA-MB-468, OCI-AML-3, and MV-4-11 being treated with drugs for 5 days and HCC1806, MCF7, MCF7 Palbo-R, and HCT116 being treated with drugs for 7 days. Cell viability was tested using the Celltiter Glo assay kit (Promega), and the testing method was consistent with the operational method provided by the kit. Readings were taken using an Envision multimode microplate reader. Data were processed using GraphPad Prism 8, and IC50 was calculated. […]

[2] = tested on: OVCAR3 ovarian cancer cells; assay: Inhibitory activity against ovarian cancer cells (OVCAR3), CellTiter-Glo viability; type: cell-based; settings: Homo sapiens, OVCAR-3, 120 h, OVCAR3, 5 days treatment
Experimental: OVCAR3 ovarian cancer cells were cultured in a cell incubator at […] with 5% CO2 using RPMI 1640 medium with […]. On the first day, the cells were plated in a 96-well plate at a cell concentration of 2500 cells/well and cultured overnight in the incubator. On the second day, the cells were treated with compounds. The maximum compound concentration was 10 μM and was 3-fold diluted to obtain 9 concentrations, and the final concentration of DMSO was 0.1%. After the cells were cultured in the incubator for another 5 days, cell viability was tested using the Celltiter Glo assay kit (Promega), and the testing method was consistent with the operational method provided by the kit. Data were processed using GraphPad Prism 8, and IC50 was calculated.
[formula] • X: the logarithm of the compound concentration; Y: % inhibition.

[3] = Human liver microsome metabolism study; type: in vitro ADME
Experimental: 222.5 μL of human liver microsomes (protein concentration: 1 mg/mL) and 25 μL of NADPH ([…]) were added to an incubation plate and pre-heated for 10 min. 2.5 μL of control compound and test compound (100 μM) were added.
[…] The reaction was stopped by adding 5 volumes of cold acetonitrile containing IS (100 nM alprazolam, 200 nM caffeine, and 100 nM tolbutamide). The reaction mixture was centrifuged, and 100 μL of the supernatant was collected and mixed with 100 μL of ultrapure H2O. Then the mixture was analyzed by LC-MS/MS.
The slope value k was determined by linear regression of the natural logarithm of a curve of the parent drug remaining percentage versus incubation time.
The in-vitro half-life (in-vitro T1/2) was determined by the slope value:
Using the following equation (the average of repeated measurements), the in-vitro T½ (min) was converted to the in-vitro intrinsic clearance rate (in-vitro CLint, in μL/min/mg protein): […]

IC50 [1]	IC50 [2]	half-life at 1 μM ([3]; human liver microsomes, in-vitro half-life)	microsomal CLint at 1 μM ([3]; human liver microsomes, in-vitro intrinsic clearance)	Remaining amount % at 0.5 min ([3]; human liver microsomes, incubation 0.5 min)	Remaining amount % at 5 min ([3]; human liver microsomes, incubation 5 min)	Remaining amount % at 15 min ([3]; human liver microsomes, incubation 15 min)	Remaining amount % at 30 min ([3]; human liver microsomes, incubation 30 min)	Remaining amount % at 60 min ([3]; human liver microsomes, incubation 60 min)	metabolic stability in human liver microsomes compared with Janssen-01 ([3]; summary of Tables 7 and 8, statement in words)	Structure (SMILES)
17.7 nM	27.7 nM	–	–	–	–	–	–	–	–	C[C@H](Nc1ncc2c(n1)CN(C(=O)N[C@H](CN(C)C)c1ccccc1)[C@H](C)C2)c1ccccn1 [Example 6, (R)—N—((S)-2-(Dimethylamino)-1-phenylethyl)-6-methyl-2-(((S)-1-(pyridin-2-yl)ethyl)amino)-5,8-dihydropyrido[3,4-d]pyrimidine-7(6H)-carboxamide]
45.9 nM	24.2 nM	> 3.08 h	< 7.5 µL/min/mg	100.00%	105.55%	96.07%	100.48%	81.83%	more stable metabolism	C[C@@H]1Cc2cnc(NCc3ccn(C)n3)nc2CN1C(=O)N[C@H](CN(C)C)c1ccccc1 [Example 2, (R)—N—((S)-2-(Dimethylamino)-1-phenylethyl)-6-methyl-2-(((1-methyl-TH-pyrazol-3-yl)methyl)amino)-5,8-dihydropyrido[3,4-d]pyrimidine-7(6H)-carboxamide]

Source: patent US20260176266A1, “PIPERIDINOPYRIMIDINE DERIVATIVE, PREPARATION METHOD THEREFOR AND USE THEREOF IN MEDICINE” (TUOJIE BIOTECH (SHANGHAI) CO., LTD., priority 2022, published 2026)
